Measurements: publication PMC9502701 (Molecules, 2022)
pIC50: −log10 of the molar value.

Biological target: neuraminidase (NA) (Influenza A virus, UniProt Q6DPL2)
Format: biochemical
Conditions: for Inhibition Rate (%): 100 μg/mL standard compounds; for pIC50: standard compounds

Sequence of neuraminidase (NA) (Q6DPL2 whole entry, looked up): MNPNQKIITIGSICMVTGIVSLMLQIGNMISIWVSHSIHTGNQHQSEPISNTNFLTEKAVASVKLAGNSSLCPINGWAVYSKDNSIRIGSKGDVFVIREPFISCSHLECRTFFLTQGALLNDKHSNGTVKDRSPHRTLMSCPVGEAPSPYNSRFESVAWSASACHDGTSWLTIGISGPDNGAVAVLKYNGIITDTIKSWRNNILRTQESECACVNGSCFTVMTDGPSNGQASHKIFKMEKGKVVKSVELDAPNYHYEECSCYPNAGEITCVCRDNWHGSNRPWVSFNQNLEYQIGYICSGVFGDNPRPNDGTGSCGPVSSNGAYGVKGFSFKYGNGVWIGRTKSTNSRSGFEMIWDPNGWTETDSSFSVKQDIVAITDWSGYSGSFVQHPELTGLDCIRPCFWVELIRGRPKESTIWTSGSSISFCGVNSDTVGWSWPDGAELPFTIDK

Structure (SMILES)	Inhibition Rate (%)	pIC50
C=C[C@H]1[C@H](O[C@@H]2O[C@H](CO)[C@@H](O)[C@H](O)[C@H]2O)OC=C(C(=O)OC)[C@H]1CC(=O)O [Secoxyloganin, secoxyloganin]	37.74%	
O=C(/C=C/c1ccc(O)c(O)c1)O[C@@H]1[C@H](O)C[C@@](O)(C(=O)O)C[C@H]1OC(=O)/C=C/c1ccc(O)c(O)c1 [4,5-Di-O-caffeoylquinic acid]	75.90%	3.88
O=C(/C=C/c1ccc(O)c(O)c1)O[C@H]1[C@H](O)C[C@](O)(C(=O)O)C[C@H]1O [Cryptochlorogenic acid, cryptochlorogenic acid]	54.89%	3.54
O=C(/C=C/c1ccc(O)c(O)c1)O[C@@H]1C[C@@](O)(C(=O)O)C[C@@H](O)[C@@H]1O [Neochlorogenic acid, neochlorogenic acid]	76.00%	3.80
